The values that follow are results of earlier work, collected in patent publication US6899896B2, “Hydrogel-driven layered drug dosage form” (Pfizer Inc, priority 1999, dated 2005).

Read-outs that look alike come from different tables or passages of the source.

Consider `CN[C@H]1CC[C@@H](c2ccc(Cl)c(Cl)c2)c2ccccc21` [Sertraline, (1S-cis)-4-(3,4-dichlorophenyl)-1,2,3,4-tetrahydro-N-methyl-1-naphthalenamine], for which the solubility of sertraline is, setting by setting: (pH 2.0) 6 mgA/mL; (pH 6.5) “about 1 mgA/mL”; (pH about 7.0) “about 0.2 mgA/mL”; (pH about 7.5) “about 0.05 mgA/mL”.
